The results in this text go back to US10751351B2, “Medicament for treatment of diabetic foot infections” (Debiopharm International S.A., priority 2016, dated 2020).

Data set [1] deals with MRSA clinical strain. Nature of the data set: Staphylococcus aureus-induced acute osteomyelitis in a rabbit model (2), dose range. In kind it is in vivo. How it is done: (§1) MIC assays were performed by broth microdilution using CLSI guidelines. OM was induced in rabbit through inoculation of the knee with 10^8 CFU/mL of a MRSA clinical strain after bone trepanation. On day 3 post-inoculation, surgical debridement was performed to mimic the clinical procedure. Samples of femoral red bone marrow (BM) and epiphyseal spongy bone were removed and bacterial counts corresponding to day 3 after infection were determined. Treatments were started after 3 days of infection and lasted for 4 days with compound A at the dose level of 12.5, 6.25, 1.6, 0.4 or 0.1 mg/kg BID iv (4 h infusion) or its vehicle BID iv. On day 7 post-inoculation, the bacterial counts were determined in BM and bone samples. The treatment efficacy was assessed by comparing the bacterial counts before (day 3 after infection) and after (day 7 after infection) the antibacterial therapy.

In data set [2] the test system is MRSA clinical strain. In kind it is in vivo, rabbit. As to conditions: 4 days of treatment; for bacterial counts in BM and bone, result in words: versus vehicle; for Mean ± SD Δlog10 CFU/g of tissue (day 3-day 7), Bone marrow / Mean ± SD Δlog10 CFU/g of tissue (day 3-day 7), Epiphyseal bone: Compound A 12.5 mg/kg BID iv, vancomycin 100 mg/kg once daily constant iv infusion. How it is done: (§2) MIC assays were performed by broth microdilution using CLSI guidelines. Osteomyelitis (OM) was induced in rabbit through inoculation of the knee with 10^8 CFU of an MRSA clinical strain after bone trepanation. On day 3 post-inoculation, surgical debridement was performed to mimic the clinical procedure. Samples of femoral red bone marrow (BM) and epiphyseal spongy bone were removed and bacterial counts were determined.
On day 7 post-inoculation, the bacterial counts were determined in BM and bone samples. The treatment efficacy was assessed by comparing the bacterial counts before (day 3 after infection) and after (day 7 after infection) the antibacterial therapy. Infected and non-infected BM, bone and plasma samples were collected for quantification of Compound B by LC-MS/MS.

Data set [3] deals with Panton-Valentine leukocidin (PVL)-positive MRSA strain. Nature of the data set: Staphylococcus aureus-induced acute osteomyelitis in a rat model. As to conditions: for mean reduction in bacterial burden compared to vehicle controls: after 3 weeks of treatment; for mean reduction in bacterial burden compared to vehicle controls / Bone cultures found negative (rats): Compound A 100 mg/kg po BID, vancomycin 100 mg/kg ip QD, fosfomycin 75 mg/kg ip QD; for Bone cultures found negative (rats): day 28, after 3 weeks of treatment. In kind it is in vivo. As for the experimental part:
(§3) Minimum inhibitory concentration (MIC) assays were performed by broth microdilution using CLSI guidelines against 20 MRSA strains isolated from bone infections. Experimental osteomyelitis was induced through inoculation of the tibial medullary cavity with 7 log10 colony-forming unit (CFU) of a Panton-Valentine leukocidin (PVL)-positive MRSA strain on day 1. Animals were randomly assigned to the following treatment groups: Compound A 100 mg/kg po BID, vancomycin 100 mg/kg ip QD, fosfomycin 75 mg/kg ip QD and vehicle po BID for 3 weeks starting on day 8 post infection (n=6/group). CFU were enumerated in bone homogenates prior to treatment on day 8 in control animals and at the end of treatment period on day 28. Infected and non-infected bone and plasma samples were collected for quantification of Compound B by LC-MS/MS.

Data set [4] concerns the target human PDE3B (Homo sapiens, UniProt Q13370). Nature of the data set: PDE3 inhibition assay, Caliper mobility shift (PDE3B). As to conditions: iFL-cAMP substrate, read-out: absolute IC50 PDE3B. In kind it is biochemical. How it is done: (§4) The inhibitory activity of Compound B was assessed against human PDE3A and PDE3B and was compared to cilostazol (a PDE3 inhibitor) in the enzymatic phosphodiesterase assay using Caliper mobility shift assay (2. Card A1, Caldwell C, Min H et al: High-throughput biochemical kinase selectivity assays: panel development and screening applications. J Biomol Screen. (2009); 14(1):31-42.). This method is based on change in charge and electrophoretic separation of product from fluorescently labeled substrate iFL-cAMP. Assays were performed in a 26 μL volume in a 384 well plate. iFL-cAMP substrate was incubated, off-chip, in reaction buffer (100 mM HEPES (pH 7.5), 5 mM MgCl2 and 0.002% Brij35) in the presence of active enzymes (PDE3A and PDE3B) and test compounds at various concentrations. After incubation period, the reaction products and remaining substrate were measured. Detection was performed using EZ reader II. The concentration of compound inducing 50% of the response (IC50) was determined from each individual concentration-response curve using variable slope fits with Prism software (Graph Pad, San Diego, Calif., USA).

Data set [5] deals with MRSA clinical strain. Nature of the data set: MIC by broth microdilution against the MRSA isolate (Example 5). In kind it is cell-based. As to conditions: Staphylococcus aureus, Example 5 isolate. How it is done:
as §1

For data set [6], the target named is human PDE3A (Homo sapiens, UniProt Q14432). Nature of the data set: PDE3 inhibition assay, Caliper mobility shift (PDE3A). In kind it is biochemical. As to conditions: iFL-cAMP substrate, read-out: absolute IC50 PDE3A. As for the experimental part:
as §4

Data set [7] deals with rabbit saphenous vein rings. Nature of the data set: In vitro vascular relaxation test in rabbit saphenous vein rings pre-contracted with noradrenaline. In kind it is cell-based. As to conditions: for EC50: Oryctolagus cuniculus, saphenous vein rings pre-contracted with 1 μM noradrenaline, read-out: pD2 value (−log EC50) (converted); for relaxation of 1 μM noradrenaline pre-contracted preparations: DMSO-treated group −29±11%. How it is done: The vascular relaxing effects of Compound B were evaluated using isolated rabbit saphenous venous tissue. Rabbits were sacrificed by a blow to the head followed by a cervical dislocation and exsanguination. A segment of the saphenous vein was carefully excised. Vein was cleaned of all fat and connective tissue and cut into 2.5 mm long rings. The rings were then mounted horizontally in 20-ml organ baths filled with Krebs's solution maintained at 37.7±0.5° C. and gassed with a mixture of 95% O2 and 5% CO2. Krebs's solution was made up as follows (mM): NaCl: 118.0/KCl: 5.0/CaCl2): 2.6/MgSO4 (7H2O): 1.2/NaHCO3: 24.9/KH2PO4: 1.2/glucose: 10.0. pH is 7.40±0.05. The rings were allowed to equilibrate for 60 minutes at an optimal resting tension of 1 g. Contractile tensions were measured using an isometric force transducer and signals were analyzed using a specialized software (IOX version 1.554, EMKA Technologies, Paris, France). Tissue viability was verified using three challenges to 80 mM KCl. The maximal contraction was reached after 3 challenges of KCl. Endothelium integrity was verified on the basis of the relaxation produced by 1 μM acetylcholine in rings precontracted with 1 μM noradrenaline. All experiments were performed on […] rings with endothelium. The method evaluated the effect of the test substance in pre-contracted preparations. The preparations were pre-contracted with an agonist (Noradrenaline at 1 μM) until a stable tonic contraction was reached. Six cumulative concentrations of the test or comparison substances were then added into the bath and relaxations were recorded to plot a concentration-response curve. Three preparations were exposed to DMSO, 0.1% over 6 consecutive periods for comparison to Compound B and cilostazol. Four preparations (obtained from 4 animals) were studied for the test and comparison substances. Three preparations were studied for the DMSO-treated group. The relaxation response to test substance was expressed as the percentage of inhibition of agonist-induced pre-contraction. The concentration of agonist inducing 50% of the maximum response (EC50) was determined from each individual concentration-response curve using linear regression. For each ring, the agonist potency (pD2) was calculated as −log (EC50).

Data set [8] in a line: Bone and plasma quantification of Compound B by LC-MS/MS in rat osteomyelitis model. As to conditions: in vivo, Compound A 100 mg/kg po BID, no difference between infected and non-infected tibias, read-out: bone:plasma ratio of Compound B. How it is done: as §3
Data set [9] has as its system MRSA clinical strain. Nature of the data set: MIC by broth microdilution against the MRSA isolate (Example 4). The data set is classed as cell-based. As to conditions: Staphylococcus aureus, read-out: MIC for the MRSA isolate. As for the experimental part: as §2
Where [10] appears, read: 0.1 mg/kg BID iv, 4 days of treatment, 1 animal.
[11] abbreviates: 0.4 mg/kg BID iv, 4 days of treatment.
Setting [12] is: 1.6 mg/kg BID iv, 4 days of treatment.
The mark [13] stands for this setting: 6.25 mg/kg BID iv, 4 days of treatment.
[14] abbreviates: 12.5 mg/kg BID iv, 4 days of treatment.

Values after ≈ are worked out from the molar mass of the structure shown. Read-outs that look alike come from different tables or passages of the source. Marks after values point to notes of the source that are not given here.

Sequence of human PDE3A (Q14432 whole entry): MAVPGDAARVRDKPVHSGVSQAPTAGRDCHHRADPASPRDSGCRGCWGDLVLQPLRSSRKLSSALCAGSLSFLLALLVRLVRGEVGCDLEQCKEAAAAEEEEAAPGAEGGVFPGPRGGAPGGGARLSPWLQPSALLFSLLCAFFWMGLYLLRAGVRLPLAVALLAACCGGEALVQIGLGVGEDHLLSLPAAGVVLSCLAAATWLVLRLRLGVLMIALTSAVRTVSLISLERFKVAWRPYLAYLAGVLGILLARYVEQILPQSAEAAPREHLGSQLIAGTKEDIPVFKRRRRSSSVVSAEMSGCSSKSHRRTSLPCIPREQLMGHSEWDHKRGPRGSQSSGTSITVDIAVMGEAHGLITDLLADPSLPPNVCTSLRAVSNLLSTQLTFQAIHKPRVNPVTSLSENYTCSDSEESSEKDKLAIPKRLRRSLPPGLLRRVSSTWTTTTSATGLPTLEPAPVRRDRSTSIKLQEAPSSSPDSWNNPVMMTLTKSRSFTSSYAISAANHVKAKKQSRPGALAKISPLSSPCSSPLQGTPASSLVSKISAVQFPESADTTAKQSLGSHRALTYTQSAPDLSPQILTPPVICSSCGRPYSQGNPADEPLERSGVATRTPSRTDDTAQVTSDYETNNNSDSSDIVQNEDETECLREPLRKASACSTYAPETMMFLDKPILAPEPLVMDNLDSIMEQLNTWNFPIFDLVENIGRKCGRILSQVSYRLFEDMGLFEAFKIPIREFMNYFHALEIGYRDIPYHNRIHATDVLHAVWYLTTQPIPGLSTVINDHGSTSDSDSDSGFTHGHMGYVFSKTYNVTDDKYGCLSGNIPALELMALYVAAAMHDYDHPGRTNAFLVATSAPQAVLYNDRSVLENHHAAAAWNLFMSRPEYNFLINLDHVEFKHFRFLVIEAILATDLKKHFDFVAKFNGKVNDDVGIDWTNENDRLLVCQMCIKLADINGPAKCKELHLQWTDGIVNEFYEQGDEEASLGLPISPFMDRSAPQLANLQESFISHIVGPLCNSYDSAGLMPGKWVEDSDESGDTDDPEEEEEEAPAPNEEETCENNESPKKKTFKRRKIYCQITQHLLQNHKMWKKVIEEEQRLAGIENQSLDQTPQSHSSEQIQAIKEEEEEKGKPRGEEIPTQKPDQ
Sequence of human PDE3B (Q13370 whole entry): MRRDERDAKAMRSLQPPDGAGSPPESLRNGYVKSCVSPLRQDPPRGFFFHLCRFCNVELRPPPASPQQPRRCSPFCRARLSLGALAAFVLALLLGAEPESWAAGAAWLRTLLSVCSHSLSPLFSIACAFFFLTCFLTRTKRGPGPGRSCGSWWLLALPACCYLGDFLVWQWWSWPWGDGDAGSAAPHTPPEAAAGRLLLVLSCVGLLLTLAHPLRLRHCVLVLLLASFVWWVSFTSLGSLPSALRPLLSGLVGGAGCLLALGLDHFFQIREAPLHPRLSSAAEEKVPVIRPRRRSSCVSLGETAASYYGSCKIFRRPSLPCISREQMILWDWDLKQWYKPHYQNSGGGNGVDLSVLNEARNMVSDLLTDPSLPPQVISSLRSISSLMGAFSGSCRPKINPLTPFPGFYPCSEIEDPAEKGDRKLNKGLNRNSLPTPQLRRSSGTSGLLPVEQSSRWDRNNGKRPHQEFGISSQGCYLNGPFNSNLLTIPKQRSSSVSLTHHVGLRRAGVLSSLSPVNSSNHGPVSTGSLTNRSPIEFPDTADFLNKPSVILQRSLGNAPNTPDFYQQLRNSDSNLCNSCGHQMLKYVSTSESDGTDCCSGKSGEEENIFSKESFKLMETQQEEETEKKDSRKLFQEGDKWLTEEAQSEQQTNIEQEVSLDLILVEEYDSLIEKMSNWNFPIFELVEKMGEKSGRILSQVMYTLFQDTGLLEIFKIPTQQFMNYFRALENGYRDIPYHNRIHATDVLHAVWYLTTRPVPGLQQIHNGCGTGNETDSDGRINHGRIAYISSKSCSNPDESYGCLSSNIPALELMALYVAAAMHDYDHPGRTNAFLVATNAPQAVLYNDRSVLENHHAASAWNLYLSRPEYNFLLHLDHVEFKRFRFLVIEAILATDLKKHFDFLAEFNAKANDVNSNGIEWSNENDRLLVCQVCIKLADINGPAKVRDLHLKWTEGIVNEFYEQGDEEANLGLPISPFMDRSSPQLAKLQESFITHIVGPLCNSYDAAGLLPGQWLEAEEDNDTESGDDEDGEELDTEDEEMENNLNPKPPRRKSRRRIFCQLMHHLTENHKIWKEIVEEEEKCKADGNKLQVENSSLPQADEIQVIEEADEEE

As to `Cc1c(CN(C)C(=O)/C=C/c2cnc3c(c2)CCC(=O)N3COP(=O)(O)O)oc2ccccc12` [Compound A, {6-[(1E)-3-{methyl[(3-methyl-1-benzofuran-2-yl)methyl]amino}-3-oxoprop-1-en-1-yl]-2-oxo-3,4-dihydro-1,8-naphthyridin-1(2H)-yl}methyl dihydrogen phosphate], the “Δlog10 CFU/g of tissue (day 3-day 7), Bone marrow” value in [1] (setting [10]) is reported as −0.74 log10 CFU/g of tissue. The “Δlog10 CFU/g of tissue (day 3-day 7), Epiphyseal bone” value in [1] (setting [10]) was −1.02 log10 CFU/g of tissue. The “Mean ± SD Δlog10 CFU/g of tissue (day 3-day 7), Bone marrow” value in data set [1] (setting [11]) was −2.03 ± 1.11 ^a log10 CFU/g of tissue; in data set [1] (setting [12]), −3.18 ± 0.74 ^a log10 CFU/g of tissue; in data set [1] (setting [13]) it was −3.45 ± 1.53 ^a log10 CFU/g of tissue; in [1] (setting [14]), −3.42 ± 0.96 ^a log10 CFU/g of tissue; in data set [2] it was −3.62 ± 0.67 log10 CFU/g of tissue. Further, the “Mean ± SD Δlog10 CFU/g of tissue (day 3-day 7), Epiphyseal bone” value is on record as −1.23 ± 0.93 ^b log10 CFU/g of tissue in data set [1] (setting [11]); −1.53 ± 1.53 ^a log10 CFU/g of tissue in [1] (setting [12]); −2.17 ± 0.72 ^a log10 CFU/g of tissue in [1] (setting [13]); −1.76 ± 0.74 ^a log10 CFU/g of tissue in data set [1] (setting [14]); −2.52 ± 1.25 log10 CFU/g of tissue in data set [2]. Besides, in data set [1] (12.5 mg/kg), the “bacterial titers in BM and bone, result in words” value was “significant reduction in bacterial titers”. Moreover, the “bacterial counts in BM and bone, result in words” value in data set [1] (lower doses 6.25, 1.6, 0.4 and 0.1 mg/kg IV BID, down to the 0.4 mg/kg dose) was “significant reduction in bacterial counts”; in data set [2] it was “significant anti-staphylococcal activity”. Moreover, the “mean reduction in bacterial burden compared to vehicle controls” value (“mean reduction in bacterial burden” below) in [3] is 2.8 log10 CFU/g of bone. In addition, the development of resistance entry in data set [3] (after the 3-week treatment period) was “No development of resistance”. Besides, the “Bone cultures found negative (rats)” value in [3] is 2/6.
For the compound `Cc1c(CN(C)C(=O)/C=C/c2cnc3c(c2)CCC(=O)N3)oc2ccccc12` [Compound B, (E)-N-methyl-N-((3-methylbenzofuran-2-yl)methyl)-3-(7-oxo-5,6,7,8-tetrahydro-1,8-naphthyridin-3-yl)acrylamide], the IC50 in data set [4] was determined as 703 nM; in [6], 600 nM. Besides, in [1] (after the 4-day treatment period), the development of resistance entry is recorded as “No development of resistance”. In addition, the MIC in data set [5] and in [9] (Example 4 isolate) was 4 ng/mL (≈ 0.0107 µM) each time. Further, in [7], the EC50 is 1410 nM. The “relaxation of 1 μM noradrenaline pre-contracted preparations” value in [7] (at 10 μM) was −69±9%. The “relaxant effects compared to vehicle control group (DMSO)” value is “concentration-dependently relaxed” in data set [7] (at 3 and 10 μM); “no relaxant effects” in [7] (from 0.03 to 1 μM). Moreover, the Kp in [8] lay in the range of 0.06 to 0.27.
As to `O=C1CCc2cc(OCCCCc3nnnn3C3CCCCC3)ccc2N1` [cilostazol, reference compound], the IC50 in data set [4] came out at 912 nM; in data set [6], 416 nM. In data set [7], the EC50 is 832 nM. In addition, the “relaxation of 1 μM noradrenaline pre-contracted preparations” value in data set [7] (at 100 μM) is given as −70±7%. Besides, the “relaxant effects compared to vehicle control group (DMSO)” value in data set [7] (at 10 and 100 μM) was “concentration-dependently relaxed”; in [7] (from 0.001 to 1 μM) it was “no relaxant effects”.
For `C[C@@H]1O[C@@H]1P(=O)(O)O` [fosfomycin], in [3], the “mean reduction in bacterial burden” value is given as 3.3 log10 CFU/g of bone and the “Bone cultures found negative (rats)” value is 2/6.
For the compound `CN[C@H](CC(C)C)C(=O)N[C@H]1C(=O)N[C@@H](CC(N)=O)C(=O)N[C@H]2C(=O)N[C@H]3C(=O)N[C@H](C(=O)N[C@H](C(=O)O)c4cc(O)cc(O)c4-c4cc3ccc4O)[C@H](O)c3ccc(c(Cl)c3)Oc3cc2cc(c3O[C@@H]2O[C@H](CO)[C@@H](O)[C@H](O)[C@H]2O[C@H]2C[C@](C)(N)[C@H](O)[C@H](C)O2)Oc2ccc(cc2Cl)[C@H]1O` [vancomycin, reference compound], in [2], the “bacterial counts in BM and bone, result in words” value is on record as “No significant difference”; the “Mean ± SD Δlog10 CFU/g of tissue (day 3-day 7), Bone marrow” value was −1.05 ± 1.30 log10 CFU/g of tissue; the “Mean ± SD Δlog10 CFU/g of tissue (day 3-day 7), Epiphyseal bone” value is listed as −0.49 ± 0.65 log10 CFU/g of tissue. In data set [3], the “mean reduction in bacterial burden” value is “no statistically significant reduction” and the “Bone cultures found negative (rats)” value was 0/6. Besides, the MIC in data set [9] was determined as 1000 ng/mL (≈ 0.69 µM).
